Measurements as given in the NIST ThermoML archive (doi:10.1021/je900550v).

Settings: 101.33 kPa, Liquid; for speed of sound: Pulse-echo method; for mass density: Vibrating tube method

C[NH2+]CCO.O=C[O-] [2-hydroxy-N-methylethanaminium formate]
Settings	mass density [kg/m3]	speed of sound [m/s]	viscosity [mPa·s]
278.15 K	1139.41	1854.7	–
278.4 K	1139.26	1854.2	–
278.65 K	1139.13	1853.7	–
278.9 K	1138.99	1853.2	–
279.15 K	1138.85	1852.7	–
279.4 K	1138.71	1852.2	–
279.65 K	1138.58	1851.7	–
279.9 K	1138.44	1851.2	–
280.15 K	1138.3	1850.7	–
280.4 K	1138.16	1850.2	–
280.65 K	1138.02	1849.7	–
280.9 K	1137.88	1849.2	–
281.15 K	1137.73	1848.7	–
281.4 K	1137.6	1848.2	–
281.65 K	1137.46	1847.7	–
281.9 K	1137.32	1847.2	–
282.15 K	1137.18	1846.8	–
282.4 K	1137.04	1846.3	–
282.65 K	1136.9	1845.8	–
282.9 K	1136.77	1845.3	–
283.15 K	1136.62	1844.8	–
283.4 K	1136.49	1844.3	–
283.65 K	1136.35	1843.8	–
283.9 K	1136.21	1843.3	–
284.15 K	1136.07	1842.8	–
284.4 K	1135.93	1842.3	–
284.65 K	1135.79	1841.8	–
284.9 K	1135.65	1841.3	–
285.15 K	1135.51	1840.8	–
285.4 K	1135.37	1840.3	–
285.65 K	1135.23	1839.8	–
285.9 K	1135.09	1839.3	–
286.15 K	1134.95	1838.9	–
286.4 K	1134.81	1838.4	–
286.65 K	1134.67	1837.9	–
286.9 K	1134.53	1837.4	–
287.15 K	1134.39	1836.9	–
287.4 K	1134.25	1836.4	–
287.65 K	1134.11	1835.9	–
287.9 K	1133.97	1835.4	–
288.15 K	1133.84	1834.9	34.2
288.4 K	1133.69	1834.4	–
288.65 K	1133.55	1833.9	–
288.9 K	1133.41	1833.4	–
289.15 K	1133.28	1833	–
289.4 K	1133.13	1832.5	–
289.65 K	1133	1832	–
289.9 K	1132.86	1831.5	–
290.15 K	1132.72	1831	–
290.4 K	1132.58	1830.5	–
290.65 K	1132.44	1830	30.15
290.9 K	1132.3	1829.5	–
291.15 K	1132.16	1829	–
291.4 K	1132.01	1828.5	–
291.65 K	1131.88	1828	–
291.9 K	1131.74	1827.5	–
292.15 K	1131.6	1827	–
292.4 K	1131.46	1826.6	–
292.65 K	1131.32	1826.1	–
292.9 K	1131.18	1825.6	–
293.15 K	1131.04	1825.1	26.05
293.4 K	1130.9	1824.6	–
293.65 K	1130.76	1824.1	–
293.9 K	1130.62	1823.6	–
294.15 K	1130.48	1823.2	–
294.4 K	1130.34	1822.7	–
294.65 K	1130.2	1822.2	–
294.9 K	1130.06	1821.7	–
295.15 K	1129.92	1821.2	–
295.4 K	1129.78	1820.7	–
295.65 K	1129.64	1820.2	23.22
295.9 K	1129.5	1819.7	–
296.15 K	1129.37	1819.2	–
296.4 K	1129.23	1818.7	–
296.65 K	1129.08	1818.2	–
296.9 K	1128.94	1817.7	–
297.15 K	1128.8	1817.3	–
297.4 K	1128.66	1816.8	–
297.65 K	1128.52	1816.3	–
297.9 K	1128.38	1815.8	–
298.15 K	1128.25	1815.3	20.27
298.4 K	1128.11	1814.8	–
298.65 K	1127.96	1814.3	–
298.9 K	1127.83	1813.8	–
299.15 K	1127.69	1813.4	–
299.4 K	1127.55	1812.9	–
299.65 K	1127.41	1812.4	–
299.9 K	1127.27	1811.9	–
300.15 K	1127.13	1811.4	–
300.4 K	1126.99	1810.9	–
300.65 K	1126.85	1810.4	18.37
300.9 K	1126.71	1809.9	–
301.15 K	1126.57	1809.5	–
301.4 K	1126.43	1809	–
301.65 K	1126.29	1808.5	–
301.9 K	1126.15	1808	–
302.15 K	1126.02	1807.5	–
302.4 K	1125.87	1807	–
302.65 K	1125.73	1806.5	–
302.9 K	1125.59	1806	–
303.15 K	1125.45	1805.6	16.4
303.4 K	1125.32	1805.1	–
303.65 K	1125.18	1804.6	–
303.9 K	1125.04	1804.1	–
304.15 K	1124.89	1803.6	–
304.4 K	1124.76	1803.2	–
304.65 K	1124.62	1802.7	–
304.91 K	1124.48	1802.2	–
305.15 K	1124.34	1801.7	15.1
305.4 K	1124.2	1801.2	–
305.65 K	1124.06	1800.7	–
305.9 K	1123.92	1800.2	–
306.15 K	1123.78	1799.7	–
306.4 K	1123.64	1799.3	–
306.65 K	1123.5	1798.8	–
306.9 K	1123.36	1798.3	–
307.15 K	1123.22	1797.8	–
307.4 K	1123.08	1797.3	–
307.65 K	1122.94	1796.8	–
307.9 K	1122.8	1796.3	–
308.15 K	1122.67	1795.8	13.73
308.4 K	1122.53	1795.4	–
308.65 K	1122.39	1794.9	–
308.9 K	1122.25	1794.4	–
309.15 K	1122.11	1793.9	–
309.4 K	1121.97	1793.4	–
309.65 K	1121.83	1792.9	–
309.9 K	1121.69	1792.5	–
310.15 K	1121.55	1792	12.78
310.4 K	1121.41	1791.5	–
310.65 K	1121.27	1791	–
310.91 K	1121.13	1790.5	–
311.16 K	1120.99	1790	–
311.4 K	1120.85	1789.5	–
311.65 K	1120.71	1789	–
311.91 K	1120.57	1788.5	–
312.16 K	1120.43	1788	–
312.41 K	1120.29	1787.6	–
312.66 K	1120.15	1787.1	–
312.91 K	1120.02	1786.6	–
313.15 K	–	–	11.4
313.16 K	1119.87	1786.1	–
313.4 K	1119.74	1785.6	–
313.66 K	1119.6	1785.1	–
313.9 K	1119.46	1784.6	–
314.15 K	1119.32	1784.1	–
314.4 K	1119.18	1783.6	–
314.65 K	1119.04	1783.1	–
314.9 K	1118.9	1782.7	–
315.15 K	1118.77	1782.2	10.56
315.41 K	1118.62	1781.7	–
315.65 K	1118.49	1781.2	–
315.91 K	1118.35	1780.7	–
316.16 K	1118.21	1780.2	–
316.41 K	1118.07	1779.7	–
316.66 K	1117.93	1779.2	–
316.91 K	1117.79	1778.8	–
317.16 K	1117.65	1778.3	–
317.4 K	1117.52	1777.8	–
317.65 K	–	–	9.7
317.66 K	1117.38	1777.3	–
317.91 K	1117.24	1776.8	–
318.16 K	1117.1	1776.3	–
318.41 K	1116.96	1775.8	–
318.65 K	1116.82	1775.3	–
318.9 K	1116.69	1774.8	–
319.16 K	1116.55	1774.4	–
319.41 K	1116.41	1773.9	–
319.65 K	1116.27	1773.4	–
319.91 K	1116.13	1772.9	–
320.16 K	1115.99	1772.4	–
320.41 K	1115.86	1772	–
320.65 K	1115.72	1771.5	9.07
320.91 K	1115.58	1771	–
321.15 K	1115.44	1770.5	–
321.41 K	1115.3	1770	–
321.66 K	1115.16	1769.6	–
321.9 K	1115.03	1769.1	–
322.15 K	1114.89	1768.6	–
322.41 K	1114.75	1768.1	–
322.65 K	1114.61	1767.6	–
322.91 K	1114.47	1767.2	–
323.15 K	–	–	8.38
323.16 K	1114.34	1766.7	–
323.41 K	1114.2	1766.2	–
323.65 K	1114.06	1765.7	–
323.91 K	1113.92	1765.2	–
324.16 K	1113.79	1764.8	–
324.41 K	1113.65	1764.3	–
324.65 K	1113.51	1763.8	–
324.9 K	1113.38	1763.3	–
325.16 K	1113.24	1762.8	–
325.4 K	1113.1	1762.3	–
325.66 K	1112.96	1761.9	–
325.9 K	1112.83	1761.4	–
326.16 K	1112.69	1760.9	–
326.41 K	1112.55	1760.4	–
326.66 K	1112.42	1759.9	–
326.9 K	1112.28	1759.4	–
327.16 K	1112.14	1759	–
327.4 K	1112.01	1758.5	–
327.66 K	1111.87	1758	–
327.9 K	1111.74	1757.5	–
328.15 K	1111.6	1757	–
328.41 K	1111.46	1756.5	–
328.66 K	1111.33	1756	–
328.9 K	1111.19	1755.6	–
329.16 K	1111.06	1755.1	–
329.4 K	1110.92	1754.6	–
329.65 K	1110.78	1754.1	–
329.9 K	1110.65	1753.6	–
330.16 K	1110.52	1753.2	–
330.41 K	1110.38	1752.7	–
330.66 K	1110.25	1752.2	–
330.91 K	1110.12	1751.8	–
331.16 K	1109.99	1751.3	–
331.41 K	1109.86	1750.8	–
331.66 K	1109.73	1750.3	–
331.91 K	1109.6	1749.9	–
332.16 K	1109.47	1749.4	–
332.41 K	1109.34	1748.9	–
332.66 K	1109.21	1748.5	–
332.91 K	1109.08	1748	–
333.16 K	1108.95	1747.5	–
333.41 K	1108.82	1747.1	–
333.66 K	1108.69	1746.6	–
333.91 K	1108.56	1746.2	–
334.16 K	1108.43	1745.7	–
334.41 K	1108.3	1745.2	–
334.66 K	1108.18	1744.8	–
334.91 K	1108.05	1744.3	–
335.16 K	1107.92	1743.8	–
335.41 K	1107.79	1743.4	–
335.66 K	1107.67	1742.9	–
335.91 K	1107.54	1742.5	–
336.16 K	1107.42	1742	–
336.41 K	1107.29	1741.6	–
336.66 K	1107.16	1741.1	–
336.9 K	1107.03	1740.7	–
337.16 K	1106.9	1740.2	–
337.4 K	1106.78	1739.8	–
337.66 K	1106.66	1739.4	–
337.9 K	1106.53	1738.9	–
338.15 K	1106.43	1738.6	–
